Laboratory results published in patent US5087712A, “Derivatives of platinum (II) with polymethylsiloxane, method for preparing same and antitumor agent based thereon” (priority 1989, dated 1992).

Experiments:
ovary cancer = experiment: Clinical tests in patients with ovary cancer of the IV clinical stage; assay type: in vivo, human patients
Text: Depending on the treatment method all the patients were divided into 2 groups.

[1] = system: regrafted Schvetz's erythroleukosis; experiment: Antitumor activity against regrafted Schvetz's erythroleukosis in rats; assay type: in vivo, white non-descript rats
Protocol: Their antitumor activity was studies in respect of regrafted Schvetz's erythroleukosis. The antitumor activity of each of the compounds according to the present invention was assessed from the experiments carried out on white non-descript rats with a mass of 150-200 g (10 animals in a group). The animals were hypodermally inoculated (in the thigh) with 2×10^8 cells of a regrafted Schvetz's erythroleukosis strain. On the 4th day after inoculation of the tumor cells, i.e. during the period of the lograithmic phase of the tumor growth the animals were administered with the compounds according to the present invention. They were administered once intraperitoneally or directly into the tumor node as powders. The compounds according to the present invention were administered in maximum effective and minimum effective doses:
The antitumor effect of the compounds according to the present invention was studies in comparison with the control and with the known preparations--CDDP and polymethylsiloxane.
The administered dose of CDDF was 8.1 mg/kg, that of polymethylsiloxane--4,000 mg/kg. […] Polymethylsiloxane was introduced in the form of a powder. Prior to administration the powders of polymethylsiloxane and of the compounds according to the present invention were sterilized by autoclaving in sealed flasks or in package from parchment paper for one hour under the excessive pressure of 1.0 atm and at the temperatuer of 100° C.
The animals were narcotized by way of a hypodermal injection of hexenal in a dose of from 40 to 60 mg/kg in the case of an intraperitoneal adminsitration of the compounds according to the present invention. […]
The antitumor activity of the test compounds was assessed for the following biological characteristics; the degree of inhibition of the tumor growth, survival of animals on the 10th day after inoculation of the tumor cells, life span of the animals.

humoral immunity = experiment: Effect on humoral immunity: antibody-forming cells in spleen and antibodies in blood serum of tumor-carriers; assay type: in vivo, rats of the Vistar line
Protocol: (§1) The immunological activity of the compound II according to the present invention was studied by variation of the characteristics of cellular and humoral immunity.
(§2) The effect of the compound II according to the present invention on the cell immunity was assessed by the time of rejection of a skin graft in the tumor-carriers. The effect on the humoral immunity was assessed by the number of antibody-forming cells in the spleen and antibodies in the blood serum formed in response to immunization, with ram ertyhrocytes, of both intact animals and the tumor-carriers.
Use was made of rats of the Vistar line which were incoulated, under the thigh skin, with 2×10^8 cells of a regrafted strain of Schvetz'erthroleukosis. […] On the 8th day after regrafting of the tumor the animals were subjected to immuniation by way of an intravenous administration of ram erythrocytes in the dose of1×10^6 cells. 4 days after immunization the animals were slaughtered by decapitation against the background of ethereal narcosis, the spleen was taken out and the content of antobidy-forming cells was determined threein by Erne'method, as well as titres of agglutinines and hemolysines in the peripheral blood using known methods.
The content of antibody-forming cells was determined for 10^6 splenocytes and for the entire mass of the spleen.

cell immunity = experiment: Effect on cell immunity: time of rejection of a skin graft in tumor-carriers; assay type: in vivo, male rats of the Vistar line
Protocol: as §1, §2
The effect of the compound II according to the present invention on the cell immunity was studied on male rats of the Vistar line with a mass of 150-200 g. The animals were subjected to transplantation, by a standard method, of a skin graft of 2×3 cm size taken from rats of the August line. Then the animals were inoculated, under the thigh skin, with 2×10^8 cells of a regrafted strain of Schvetz's erythroleukosis.
CDDP was administered in a solution, while polymethylsiloxane and the compound II of the present invention--as a powder which was introduced into an opened abdominal cavity following to above-described procedure. The intact animals were used as a control. The time of rejection of the skin graft was fixed by variation of its temperature, colour and elasticity.

inner organs = experiment: Autopsy, morphological and histological investigations of inner organs; assay type: in vivo, rats; mice; conditions: doses lesser than the toxic one, 30th day after administration
Protocol: The dead animals were subjected to an autopsy and morpholigical and histological investigations of the inner organs were performed. The animals administered with the compounds in doses lesser than the toxic one were slaughtered after 3, 7, 14 and 30 days. Their inner organs were also subjected to an autopsy.

ovary carcinoma = conditions: in combination with vinblastin, actinomycin and prednisolone; cited from earlier work
[2] = group I: compound II then CDDP, 1 year after operation, group II: CDDP only, 9 months-1 year
[3] = group I: compound II then CDDP, 2-3.5 years after the operation, group II: CDDP only
[4] = 4 days after immunization with ram erythrocytes

Structure (SMILES): N.N.[Cl][Pt][Cl] [CDDP, cis-dichlorodiammonioplatinum (II)]
- Full remission, number of patients (ovary cancer; group I (30): compound II then CDDP, group II (47): CDDP only): 14 patients
- Full remission, share of patients (ovary cancer; group I (30 patients): compound II during operation then intraperitoneal CDDP, 2-3.5 years, group II (47 patients): CDDP only): 30%
- Deaths, number of patients (ovary cancer; [2]): 9 persons
- Deaths, share of patients (ovary cancer; [2]): 19%
- Partial remission and stabilization of the process, number of patients (ovary cancer; [3]): 14 persons
- Partial remission and stabilization of the process, share of patients (ovary cancer; [3]): 30%
- Recurrence of the tumor growth, number of patients (ovary cancer; group II: CDDP only): 10 persons
- Recurrence of the tumor growth, share of patients (ovary cancer; group II: CDDP only): 21%
- Survival of animals ([1]; on the 10th day after inoculation of the tumor cells): 80%
- Life span ([1]; rats with Schvetz's erythroleukosis): 11.5 ± 0.5 days
- Degree of inhibition of the tumor growth ([1]; rats, single intraperitoneal or intratumoral administration on 4th day after inoculation): 78%
- Effect on humoral immunity (in words) (humoral immunity): inhibits the humoral immunity
- Content of antibody-forming cells for the entire spleen (humoral immunity; [4]): (36.42 ± 2.15) × 10^3
- Content of antibody-forming cells per 10^6 of splenocytes (humoral immunity; [4]): 20.50 ± 2.15
- Effect on characteristics of the cell immunity of tumor-carriers (in words) (cell immunity): does not substantially affect the characteristics of the cell immunity of the tumor-carriers
- Time of rejection of a skin graft (cell immunity; intraperitoneal CDDP 5.6, polymethylsiloxane 2,000, compound II 550 mg/kg): 13.5 ± 0.5 days
- Degree and restoration of histological changes (inner organs): pronounced to even greater extent than in the case of administration of the compounds according to the present invention, they were only partly restored on the 30th day after administration
- Effectiveness of therapy of ovary carcinoma (ovary carcinoma): 100%
